# From publication PMC9743128, “Phenotype-based screening rediscovered benzopyran-embedded microtubule inhibitors as anti-neuroinflammatory agents by modulating the tubulin–p65 interaction” (Experimental & Molecular Medicine, 2022)
# Columns and labels:
# [1] = Cell viability assay (EZ-Cytox); settings: mouse, BV-2 microglial cells
# Description: (§1) A total of 40,000 cells were seeded on a 96-well plate and incubated for 18 h. After 6-, 12- and 24-h compound treatment, 10 μL of EZ-Cytox solution (Dogen; EZ-BULK150) was added to the 96-well plate. After 30 min, the absorbance at 455 nm was measured using a microplate reader (BioTek; Synergy).
# (§2) (n=6). Data are presented as the mean ± SD.
# BV-2 cells = test: Cell viability assay (EZ-Cytox); settings: BV-2, various time points
# Description: as §1, §2
smiles,measurement,setting,value
COc1ccc2c(c1O)OC(C)(C)C=C2c1cccc2c1oc1ccccc12 [Compound 8],viability at 10 µM,[1],108%
same,Cytotoxicity (cell viability curve),BV-2 cells,without considerable cytotoxicity
